Patent publication US6479533B1, “Methods and compositions for the protection of mitochondria” (priority 1997, dated 2002)

How the values were obtained:
Format in all cases: cell-based
[1] = test system: mitochondria in mouse keratinocytes; assay: MTT assay after alloxan exposure
Description: (§1) This assay measures the specific activity of mitochondria to cleave the tetrazolium ring of the soluble dye MTT [3-(4,5-dimethylthiazol-2-yl)-2,5-diphenyl tetrazolium bromide] to form the insoluble blue formazan form. Living mitochondria metabolize MTT and make the blue formazan; dead mitochondria immediately stop forming blue formazan. In the MTT assay, mammalian cells are pretreated with L-ergothioneine and then treated with the mitochondrial damaging agent, in this example UV-B. MTT is then added and the formation of the blue dye is measured spectrophotometrically.
Mouse keratinocytes were pretreated with various concentrations of L-ergothioneine (unencapsulated) and then exposed to alloxan at various concentrations.
The effect of alloxan on the pretreated mitochondria was determined by the MTT assay as in Example 1.
Table 2 provides the percent optical densities of the formazan blue present relative to unexposed (control) mitochondria in cells for various alloxan concentrations, and L-ergothioneine concentrations.

[2] = test system: mitochondrial membranes in mouse keratinocytes; assay: JC-1 assay (fluorescence microscopy) after alloxan
Method: Mouse keratinocytes were pretreated with L-ergothioneine (unencapsulated) at 1 mM and then treated with 8 mM alloxan. One day after treatment with L-ergothioneine, the cells were treated for 10 minutes with JC-I and the cells examined by fluorescence microscopy.
The JC-1 assay makes use of the fluorescent dye JC-1 (5,5′, 6,6′-tetrachloro-1, 1′, 3,3′-tetrathylbenzimidazolecarbocyanine iodide) (Molecular Probes Inc., Eugene, OR). This dye immediately and specifically intercalates into mitochondrial membranes. In living, charged membranes the JC-1 dye is maintained in the membrane as a […], and fluoresces green. When the mitochondrial membrane is damaged, aggregation of the JC-1 dye into J-1 aggregates occurs and the fluorescence changes to orange. Orange coloration is then characteristic of mitochondrial membrane damage.

[3] = test system: mitochondria in mouse keratinocytes; assay: MTT assay after UV-B irradiation
Description: Mouse keratinocytes were pretreated with different concentrations of L-ergothioneine (unencapsulated) and then exposed to ultraviolet B radiation (UV-B), the shorter wavelength range of UV light present in sunlight which is responsible for significant photodamage to the skin. The light was generated by a FS20 sunlamp filtered with 2 sheets of Kodacel to eliminate light having a wavelength less than 280 nm.
as §1
Table I provides the percent optical density of the formazan blue present relative to unexposed (control) mitochondria in cells for various UV-B levels, expressed as joules per square meter, and L-ergothioneine concentrations.
Mouse keratinocytes were pretreated with L-ergothioneine, both unencapsulated and encapsulated in liposomes (prepared as described below), at a final concentration of 12.5 μM. A control group was not treated with L-ergothioneine. The mouse keratinocytes were then exposed to UV-B as in Example I.
The L-ergothioneine was encapsulated into liposomes composed of phosphatidyl choline, phosphatidyl ethanolamine, oleic acid and cholesteryl hemisuccinate in a ratio of 2:2:1:5. To calculate the concentration of entrapped L-ergothioneine, the liposomes are extracted with chloroform, and the OD258 is measured in the aqueous layer. The concentration of L-ergothioneine is calculated using the ε258 of L-ergothioneine of 14,500. The final concentration of L-ergothioneine in the purified liposome was about 1.1 mM. […] Unencapsulated L-ergothioneine was adjusted to the same concentration by dilution.
The effect of the UV-B on the pretreated and untreated mitochondria was determined by the MTT assay as in Example 1.
Table 3 provides the percent optical density of the formazan blue present in each case relative to unexposed (control) mitochondria in cells for various UV-B levels.

C[N+](C)(C)[C@@H](Cc1c[nH]c(=S)[nH]1)C(=O)[O-] [L-ergothioneine]
percent optical density of formazan blue relative to unexposed (control) mitochondria ([1]; 0.1 mM L-ergothioneine, alloxan 0 mM): 100.0% | percent optical density of formazan blue relative to unexposed (control) mitochondria ([1]; 0.1 mM L-ergothioneine, alloxan 0.625 mM): 86.3% | percent optical density of formazan blue relative to unexposed (control) mitochondria ([1]; 0.1 mM L-ergothioneine, alloxan 1.25 mM): 80.8% | percent optical density of formazan blue relative to unexposed (control) mitochondria ([1]; 0.1 mM L-ergothioneine, alloxan 2.5 mM): 81.1% | percent optical density of formazan blue relative to unexposed (control) mitochondria ([1]; 0.1 mM L-ergothioneine, alloxan 5 mM): 73.3% | percent optical density of formazan blue relative to unexposed (control) mitochondria ([1]; 0.1 mM L-ergothioneine, alloxan 10 mM): 74.9% | percent optical density of formazan blue relative to unexposed (control) mitochondria ([1]; 0.1 mM L-ergothioneine, alloxan 20 mM): 79.1% | percent optical density of formazan blue relative to unexposed (control) mitochondria ([1]; 0.5 mM L-ergothioneine, alloxan 0 mM): 100.0% | percent optical density of formazan blue relative to unexposed (control) mitochondria ([1]; 0.5 mM L-ergothioneine, alloxan 0.625 mM): 88.3% | percent optical density of formazan blue relative to unexposed (control) mitochondria ([1]; 0.5 mM L-ergothioneine, alloxan 1.25 mM): 81.0% | percent optical density of formazan blue relative to unexposed (control) mitochondria ([1]; 0.5 mM L-ergothioneine, alloxan 2.5 mM): 81.0% | percent optical density of formazan blue relative to unexposed (control) mitochondria ([1]; 0.5 mM L-ergothioneine, alloxan 5 mM): 73.3% | percent optical density of formazan blue relative to unexposed (control) mitochondria ([1]; 0.5 mM L-ergothioneine, alloxan 10 mM): 74.1% | percent optical density of formazan blue relative to unexposed (control) mitochondria ([1]; 0.5 mM L-ergothioneine, alloxan 20 mM): 78.4% | percent optical density of formazan blue relative to unexposed (control) mitochondria ([1]; 0.5 mM L-ergothioneine, alloxan 40 mM): 72.3% | percent optical density of formazan blue relative to unexposed (control) mitochondria ([1]; 1 mM L-ergothioneine, alloxan 0 mM): 100.0% | percent optical density of formazan blue relative to unexposed (control) mitochondria ([1]; 1 mM L-ergothioneine, alloxan 0.625 mM): 91.2% | percent optical density of formazan blue relative to unexposed (control) mitochondria ([1]; 1 mM L-ergothioneine, alloxan 1.25 mM): 86.5% | percent optical density of formazan blue relative to unexposed (control) mitochondria ([1]; 1 mM L-ergothioneine, alloxan 2.5 mM): 82.9% | percent optical density of formazan blue relative to unexposed (control) mitochondria ([1]; 1 mM L-ergothioneine, alloxan 10 mM): 68.5% | percent optical density of formazan blue relative to unexposed (control) mitochondria ([1]; 1 mM L-ergothioneine, alloxan 20 mM): 72.7% | percent optical density of formazan blue relative to unexposed (control) mitochondria ([1]; 1 mM L-ergothioneine, alloxan 40 mM): 66.6% | protection from oxidative damage by alloxan ([1]; dose-responsive portion of the curve (alloxan up to 5 mM)): afforded protection from oxidative damage | JC-1 fluorescence colour (orange = mitochondrial membrane damage) ([2]; 1 mM L-ergothioneine alone, no alloxan): green fluorescence | JC-1 fluorescence colour (orange = mitochondrial membrane damage) ([2]; 1 mM L-ergothioneine pretreatment, then 8 mM alloxan): much less orange than cells treated with alloxani alone | protection of mitochondria from UV-B damage ([3]; 12.5 μM, UV-B 100 and 500 J/m^2): significant but not complete protection | percent optical density of formazan blue relative to unexposed (control) mitochondria ([3]; 0.1 mM L-ergothioneine, UV-B 0 J/m^2): 100.0% | percent optical density of formazan blue relative to unexposed (control) mitochondria ([3]; 0.1 mM L-ergothioneine, UV-B 100 J/m^2): 95.7% | percent optical density of formazan blue relative to unexposed (control) mitochondria ([3]; 0.1 mM L-ergothioneine, UV-B 200 J/m^2): 97.0% | percent optical density of formazan blue relative to unexposed (control) mitochondria ([3]; 0.1 mM L-ergothioneine, UV-B 500 J/m^2): 91.0% | percent optical density of formazan blue relative to unexposed (control) mitochondria ([3]; 0.5 mM L-ergothioneine, UV-B 100 J/m^2): 97.2% | percent optical density of formazan blue relative to unexposed (control) mitochondria ([3]; 0.5 mM L-ergothioneine, UV-B 200 J/m^2): 99.4% | percent optical density of formazan blue relative to unexposed (control) mitochondria ([3]; 0.5 mM L-ergothioneine, UV-B 500 J/m^2): 90.8% | percent optical density of formazan blue relative to unexposed (control) mitochondria ([3]; 1 mM L-ergothioneine, UV-B 0 J/m^2): 100.0% | percent optical density of formazan blue relative to unexposed (control) mitochondria ([3]; 1 mM L-ergothioneine, UV-B 100 J/m^2): 97.1% | percent optical density of formazan blue relative to unexposed (control) mitochondria ([3]; 1 mM L-ergothioneine, UV-B 200 J/m^2): 103.9% | percent optical density of formazan blue relative to unexposed (control) mitochondria ([3]; 1 mM L-ergothioneine, UV-B 500 J/m^2): 96.0% | mitochondrial viability ([3]; UV-B 100 and 200 J/m^2, all three levels of L-ergothioneine (0.1, 0.5, 1 mM)): greater than 95% | protection of mitochondria ([3]; highest UV-B dose (500 J/m^2)): still protected the mitochondria | percent optical density of formazan blue relative to unexposed (control) mitochondria ([3]; unencapsulated, 12.5 μM, UV-B 0 J/m^2): 100.0% | percent optical density of formazan blue relative to unexposed (control) mitochondria ([3]; unencapsulated, 12.5 μM, UV-B 100 J/m^2): 89.9% | percent optical density of formazan blue relative to unexposed (control) mitochondria ([3]; unencapsulated, 12.5 μM, UV-B 500 J/m^2): 89.9% | concentration at which active (protection from UV-B) ([3]; unencapsulated, UV-B 100 and 500 J/m^2): ≤ 12.5 µM
